Results on two compounds are retold here after ChEMBL document CHEMBL4673353, “Switching a Xanthine Oxidase Inhibitor to a Dual-Target Antagonist of P2Y and P2Y as an Oral Antiplatelet Agent with a Wider Therapeutic Window in Rats than Ticagrelor” (J Med Chem, 2020).

The nature of series [1]: Metabolic stability of compound in rat liver microsomes assessed as intrinsic clearance per mg protein at 0.2 uM in presence of NADPH measured up to 90 mins by LC-MS/MS analysis. In kind it is ADME, Microsome. As to conditions: 1.5 h.
A short description of series [2]: Drug metabolism in rat liver microsomes assessed as 1-[(4-Cyanobenzyl)oxy]-2-(3-cyanophenyl)-4-methyl-1H-imidazole-5-carboxylic acid formation at 0.2 uM in presence of NADPH measured up to 90 mins by LC-MS/MS analysis. It counts as ADME, Microsome. Conditions: 1.5 h.
A short description of series [3]: Prodrug conversion in male Sprague-Dawley rat assessed as 1-[(4-Cyanobenzyl)oxy]-2-(3-cyanophenyl)-4-methyl-1H-imidazole-5-carboxylic acid formation at 10 mg/kg, po measured at 10 mins by LC-MS analysis. In kind it is ADME, organism-based. As to conditions: in vivo.
Series [4] is described as follows: Acute toxicity in Kunming mouse assessed as death at 2000 mg/kg, ig administered as single dose monitored every day up to14 days. Conditions: in vivo, po, 336 h, time 14 day. It counts as organism-based.
The nature of series [5]: Toxicity in Sprague-Dawley rat model of tail snip bleeding assessed as increase in bleeding weight at 10 mg/kg, po administered via gavage as single dose measured within 2 hrs post tail snip relative to control. It counts as organism-based. As to conditions: in vivo.
Series [6] deals with Cytochrome P450 3A4 (Homo sapiens, UniProt P08684). As to the kind of experiment: Inhibition of CYP3A4 in human liver microsomes using testosterone as substrate preincubated for 5 mins followed by NADPH generating system addition and measured after 120 mins by LC-MS/MS. It counts as ADME.
For series [7], the target named is Cytochrome P450 2D6 (Homo sapiens, UniProt P10635). As to the kind of experiment: Inhibition of CYP2D6 in human liver microsomes using dextromethorphan as substrate preincubated for 5 mins followed by NADPH generating system addition and measured after 120 mins by LC-MS/MS. In kind it is ADME.
A short description of series [8]: Antagonist activity at P2Y1 in rabbit platelet-rich plasma assessed as inhibition of ADP-induced increase in intracellular Ca2+ concentration preincubated for 5 mins followed by ADP addition and measured for 3 mins by fluo4 dye-based fluorescence assay. It counts as cell-free. As to conditions: Oryctolagus cuniculus.
The target of series [9] is P2Y purinoceptor 12 (Homo sapiens, UniProt Q9H244). The series can be described thus: Agonist activity at P2Y12 in human whole blood assessed as decrease in PGE1-induced VASP phosphorylation at 100 to 200 uM measured after 10 mins by immunostaining based flow cytometric analysis. In kind it is tissue-based. As to conditions: dose 100-200 µM.
Series [10] can be described thus: Apparent volume of distribution in male Sprague-Dawley rat at 10 mg/kg, iv administered as single dose by LC-MS analysis. In kind it is ADME, organism-based. As to conditions: in vivo, read-out: Vz.
Series [11] can be described thus: Clearance in male Sprague-Dawley rat at 10 mg/kg, iv administered as single dose by LC-MS analysis. In kind it is ADME, organism-based. As to conditions: in vivo.

Each structure is given as a SMILES string. The source made the active and inactive calls. The calls are words filed in the database; no cut-off is given here.

P2Y purinoceptor 12, sequence (Q9H244 whole entry): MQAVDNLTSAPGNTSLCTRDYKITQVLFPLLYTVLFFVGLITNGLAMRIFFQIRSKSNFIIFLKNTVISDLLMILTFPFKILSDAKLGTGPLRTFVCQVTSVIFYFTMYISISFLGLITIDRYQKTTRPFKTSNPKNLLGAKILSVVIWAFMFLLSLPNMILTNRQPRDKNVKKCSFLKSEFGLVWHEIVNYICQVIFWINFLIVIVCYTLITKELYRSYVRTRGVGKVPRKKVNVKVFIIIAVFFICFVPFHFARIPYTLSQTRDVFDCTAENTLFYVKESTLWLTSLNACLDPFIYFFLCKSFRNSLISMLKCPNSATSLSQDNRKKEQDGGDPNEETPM
Cytochrome P450 2D6, sequence (P10635 whole entry): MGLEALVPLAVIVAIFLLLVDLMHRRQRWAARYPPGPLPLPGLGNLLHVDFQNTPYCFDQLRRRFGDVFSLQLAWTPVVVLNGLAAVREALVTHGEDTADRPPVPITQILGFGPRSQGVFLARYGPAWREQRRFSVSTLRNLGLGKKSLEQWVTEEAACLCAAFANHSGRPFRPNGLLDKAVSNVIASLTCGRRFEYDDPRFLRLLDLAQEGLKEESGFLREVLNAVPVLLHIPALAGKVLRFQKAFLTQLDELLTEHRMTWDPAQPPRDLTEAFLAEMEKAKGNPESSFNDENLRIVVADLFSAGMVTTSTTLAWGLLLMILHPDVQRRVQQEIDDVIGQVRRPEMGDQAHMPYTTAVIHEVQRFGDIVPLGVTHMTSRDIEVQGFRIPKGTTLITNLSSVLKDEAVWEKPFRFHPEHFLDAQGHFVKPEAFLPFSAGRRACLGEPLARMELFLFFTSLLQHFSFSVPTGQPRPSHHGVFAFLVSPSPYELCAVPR
Cytochrome P450 3A4, sequence (P08684 whole entry): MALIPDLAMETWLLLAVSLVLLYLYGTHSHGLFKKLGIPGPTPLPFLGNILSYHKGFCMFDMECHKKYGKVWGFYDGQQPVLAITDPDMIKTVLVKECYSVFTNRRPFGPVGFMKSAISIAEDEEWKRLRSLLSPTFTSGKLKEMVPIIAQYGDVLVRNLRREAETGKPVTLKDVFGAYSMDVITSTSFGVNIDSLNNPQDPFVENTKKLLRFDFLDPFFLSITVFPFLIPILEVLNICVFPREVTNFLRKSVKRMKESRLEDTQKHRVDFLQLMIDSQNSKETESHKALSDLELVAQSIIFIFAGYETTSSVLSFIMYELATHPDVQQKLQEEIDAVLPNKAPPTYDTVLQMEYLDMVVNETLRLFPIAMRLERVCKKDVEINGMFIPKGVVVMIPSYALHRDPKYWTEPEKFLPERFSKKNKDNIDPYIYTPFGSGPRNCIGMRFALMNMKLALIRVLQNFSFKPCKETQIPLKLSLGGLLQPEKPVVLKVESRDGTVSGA

Take `CCOC(=O)c1c(C)nc(-c2cccc(C#N)c2)n1OCc1ccc(C#N)cc1`: the CLH in series [1] was 0.06 mL/min. Besides, the Drug metabolism result in series [2] and in series [3] was “Metabolite_Detected” throughout. The Activity result in [4] is reported as “Non-Toxic”. Moreover, the “fold change (FC)” value in [5] is listed as 5.
As for `Cc1nc(-c2cccc(C#N)c2)n(OCc2ccc(C#N)cc2)c1C(=O)O`, the IC50 in series [6] was > 10 µM; in [7] it was > 10 µM; in series [8] it was 2.59 µM. For the same compound, the result in [9] was inactive. Also, in series [10], the Vd was found to be 21.3 L/kg. The clearance in series [11] is 50.5 mL/min/kg.
